According to patent publication US11944626B2, “Small molecule inhibitors of ALDH and uses thereof” (The Regents of the University of Michigan, priority 2016, dated 2024):

Assays:
OVSAHO = OVSAHO Cell Viability; assay type: cell-based; conditions: for OVSAHO Cell Viability (30 μM) % CD133 + % ctrl / OVSAHO Cell Viability (50 μM) % CD133 + % ctrl: CD133+ cells; for OVSAHO Cell Viability (30 μM) Total Cell % ctrl / OVSAHO Cell Viability (50 μM) Total Cell % ctrl: total cells
ALDH2 = target: T1, ALDH2 (Homo sapiens, UniProt P05091); assay: Inhibition of ALDH isoenzymes (NAD(P)H formation at 340 nm, purified recombinant enzyme); assay type: biochemical; set-up: key to ALDH2 inhibition at 20 μM (N.I.): N.I.: No inhibition at 20 μM; conditions: compound at 20 μM; for remaining activity at 20 µM: read-out: ALDH2 % Control at 20 μM;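 as to all read-outs here: run at 25 °C, started by adding substrate after 2 min preincubation, with 100-200 nM ALDH2, 200 µM NAD+, 100 µM propionaldehyde, 1% DMSO in BES buffer pH 7.5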
T1 sequence (P05091 18-517): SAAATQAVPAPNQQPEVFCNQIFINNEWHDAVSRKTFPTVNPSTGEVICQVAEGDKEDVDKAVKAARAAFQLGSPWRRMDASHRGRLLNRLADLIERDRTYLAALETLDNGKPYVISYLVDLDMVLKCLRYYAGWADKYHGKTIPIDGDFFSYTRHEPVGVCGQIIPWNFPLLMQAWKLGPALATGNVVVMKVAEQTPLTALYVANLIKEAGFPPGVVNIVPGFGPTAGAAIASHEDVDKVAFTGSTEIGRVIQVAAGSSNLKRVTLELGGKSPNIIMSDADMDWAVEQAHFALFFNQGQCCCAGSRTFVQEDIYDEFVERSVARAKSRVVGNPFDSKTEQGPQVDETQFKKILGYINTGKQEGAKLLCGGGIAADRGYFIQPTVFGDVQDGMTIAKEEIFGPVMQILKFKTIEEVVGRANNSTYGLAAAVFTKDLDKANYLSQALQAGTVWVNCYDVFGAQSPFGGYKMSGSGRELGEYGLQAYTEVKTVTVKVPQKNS

ALDH1A2 = target: T2, ALDH1A2 (Homo sapiens, UniProt O94788); assay: as above; assay type: biochemical; conditions: for remaining activity at 20 µM: compound at 20 μM, read-out: ALDH1A2 % Control at 20 μM
T2 sequence (O94788 1-518): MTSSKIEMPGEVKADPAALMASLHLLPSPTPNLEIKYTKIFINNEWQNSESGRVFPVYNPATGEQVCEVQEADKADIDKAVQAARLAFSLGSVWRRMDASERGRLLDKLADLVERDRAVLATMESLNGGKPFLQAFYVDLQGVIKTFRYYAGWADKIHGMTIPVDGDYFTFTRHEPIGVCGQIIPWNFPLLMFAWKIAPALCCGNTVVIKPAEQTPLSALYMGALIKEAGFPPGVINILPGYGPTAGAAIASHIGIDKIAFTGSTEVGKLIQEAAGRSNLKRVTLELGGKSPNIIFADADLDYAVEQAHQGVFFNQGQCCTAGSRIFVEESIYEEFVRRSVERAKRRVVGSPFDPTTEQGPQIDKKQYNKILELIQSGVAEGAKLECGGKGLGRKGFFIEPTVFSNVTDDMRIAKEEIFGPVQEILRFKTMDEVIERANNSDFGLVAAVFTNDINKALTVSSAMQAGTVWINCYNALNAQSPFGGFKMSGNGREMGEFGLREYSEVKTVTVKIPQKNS

ALDH1A1 = target: T3, ALDH1A1 (Homo sapiens, UniProt P00352); assay: as above; assay type: biochemical; conditions: for remaining activity at 20 µM: compound at 20 μM, read-out: ALDH1A1 % Control at 20 μM
T3 sequence (P00352 1-501): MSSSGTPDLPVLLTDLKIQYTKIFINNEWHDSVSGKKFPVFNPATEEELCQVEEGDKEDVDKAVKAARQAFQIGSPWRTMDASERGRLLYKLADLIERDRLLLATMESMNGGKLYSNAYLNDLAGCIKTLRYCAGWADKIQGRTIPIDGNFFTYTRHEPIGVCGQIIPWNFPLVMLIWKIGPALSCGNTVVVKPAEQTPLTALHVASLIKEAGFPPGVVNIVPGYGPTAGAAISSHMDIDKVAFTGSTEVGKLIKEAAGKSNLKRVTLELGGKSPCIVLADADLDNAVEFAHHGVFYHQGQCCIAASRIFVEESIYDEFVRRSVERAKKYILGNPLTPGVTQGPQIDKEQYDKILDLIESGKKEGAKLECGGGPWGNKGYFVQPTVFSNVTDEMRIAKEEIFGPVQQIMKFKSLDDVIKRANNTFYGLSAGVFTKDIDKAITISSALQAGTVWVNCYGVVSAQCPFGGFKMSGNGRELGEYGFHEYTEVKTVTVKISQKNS

[1] = 100-200 nM enzyme, 200 μM NAD+, 100 μM propionaldehyde, pH 7.5, 25° C.

Structure (SMILES) | remaining activity at 20 µM (ALDH2) | OVSAHO Cell Viability (50 μM) % CD133 + % ctrl (OVSAHO) | OVSAHO Cell Viability (50 μM) Total Cell % ctrl (OVSAHO) | other results
CC(Sc1nc2c(cnn2C)c(=O)n1-c1ccccc1)c1ccccc1 (racemic) [Example 61, 1-methyl-5-phenyl-6-((1-phenylethyl)thio)-1H-pyrazolo[3,4-d]pyrimidin-4(5H)-one] | 107% | – | – | OVSAHO Cell Viability (30 μM) % CD133 + % ctrl (OVSAHO): 88% ctrl; OVSAHO Cell Viability (30 μM) Total Cell % ctrl (OVSAHO): 7% ctrl
O=c1c2cn[nH]c2nc(SCc2cccc(F)c2)n1-c1ccccc1 [Example 2, 6-((3-fluorobenzyl)thio)-5-phenyl-1H-pyrazolo[3,4-d]pyrimidin-4(5H)-one] | – | 58 % ctrl | 39 % ctrl | –
Cc1ccccc1-n1c(SCc2cccc(F)c2)nc2c(cnn2C)c1=O [Example 3, 6-((3-fluorobenzyl)thio)-1-methyl-5-(o-tolyl)-1H-pyrazolo[3,4-d]pyrimidin-4(5H)-one] | – | – | – | IC50 (ALDH1A2; [1]): > 20 µM
Cc1ccccc1-n1c(SCc2cccc(F)c2)nc2c(cnn2C2COC2)c1=O [Example 9, 6-((3-fluorobenzyl)thio)-1-(oxetan-3-yl)-5-(o-tolyl)-1H-pyrazolo[3,4-d]pyrimidin-4(5H)-one] | – | 50 % ctrl | 22 % ctrl | remaining activity at 20 µM (ALDH1A2): 31%
Cc1ccccc1-n1c(SCc2cccc(F)c2)nc2c(cnn2CC2COC2)c1=O [Example 11, 6-((3-fluorobenzyl)thio)-1-(oxetan-3-ylmethyl)-5-(o-tolyl)-1H-pyrazolo[3,4-d]pyrimidin-4(5H)-one] | – | 69 % ctrl | 30 % ctrl | –
Cn1cc2c(=O)n(-c3ccccc3)c(SCc3cccc(F)c3)nc2n1 [Example 13, 6-((3-fluorobenzyl)thio)-2-methyl-5-phenyl-2H-pyrazolo[3,4-d]pyrimidin-4(5H)-one] | – | 83 % ctrl | 69 % ctrl | –
Cn1ncc2c(=O)n(-c3ccccc3)c(SCc3cccc(F)c3)nc21 [Example 27, 6-((3-fluorobenzyl)thio)-1-methyl-5-phenyl-1H-pyrazolo[3,4-d]pyrimidin-4(5H)-one] | – | – | – | ALDH2 inhibition at 20 μM (N.I.) (ALDH2): N.I.
Cn1ncc2c(=O)n(-c3cccnc3)c(SCc3cccc(F)c3)nc21 [Example 31, 6-((3-fluorobenzyl)thio)-1-methyl-5-(pyridin-3-yl)-1H-pyrazolo[3,4-d]pyrimidin-4(5H)-one] | – | 81 % ctrl | 79 % ctrl | –
Cn1ncc2c(=O)n(-c3ccncc3)c(SCc3cccc(F)c3)nc21 [Example 32, 6-((3-fluorobenzyl)thio)-1-methyl-5-(pyridin-4-yl)-1H-pyrazolo[3,4-d]pyrimidin-4(5H)-one] | – | 75 % ctrl | 66 % ctrl | IC50 (ALDH1A1; [1]): 5.2 µM
Cn1ncc2c(=O)n(-c3ccccn3)c(SCc3cccc(F)c3)nc21 [Example 34, 6-((3-fluorobenzyl)thio)-1-methyl-5-(pyridin-2-yl)-1H-pyrazolo[3,4-d]pyrimidin-4(5H)-one] | – | 81 % ctrl | 77 % ctrl | –
Cn1ncc2c(=O)n(Cc3ccccc3)c(SCc3cccc(F)c3)nc21 [Example 36, 5-benzyl-6-((3-fluorobenzyl)thio)-1-methyl-1H-pyrazolo[3,4-d]pyrimidin-4(5H)-one] | – | 5 % ctrl | 12 % ctrl | ALDH2 inhibition at 20 μM (N.I.) (ALDH2): N.I.
Cn1c(SCc2cccc(F)c2)nc2c(cnn2C)c1=O [Example 37, 6-((3-fluorobenzyl)thio)-1,5-dimethyl-1H-pyrazolo[3,4-d]pyrimidin-4(5H)-one] | – | 88 % ctrl | 7 % ctrl | –
Cn1ncc2c(=O)n(-c3cccc(Cl)c3)c(SCc3cccc(F)c3)nc21 [Example 42, 5-(3-chlorophenyl)-6-((3-fluorobenzyl)thio)-1-methyl-1H-pyrazolo[3,4-d]pyrimidin-4(5H)-one] | 137% | – | – | –
Cn1ncc2c(=O)n(-c3ccc(Cl)cc3)c(SCc3cccc(F)c3)nc21 [Example 43, 5-(4-chlorophenyl)-6-((3-fluorobenzyl)thio)-1-methyl-1H-pyrazolo[3,4-d]pyrimidin-4(5H)-one] | 153% | – | – | –
Cn1ncc2c(=O)n(-c3ccccc3)c(/C=C/c3cccc(F)c3)nc21 [Example 47, (E)-6-(3-fluorostyryl)-1-methyl-5-phenyl-1H-pyrazolo[3,4-d]pyrimidin-4(5H)-one] | 110% | – | – | remaining activity at 20 µM (ALDH1A1): 28%; remaining activity at 20 µM (ALDH1A2): 15%
Cn1ncc2c(=O)n(-c3ccccc3)c(CNc3cccc(F)c3)nc21 [Example 49, 6-(((3-fluorophenyl)amino)methyl)-1-methyl-5-phenyl-1H-pyrazolo[3,4-d]pyrimidin-4(5H)-one] | 89% | – | – | –
Cn1ncc2c(=O)n(-c3ccccc3)c(CSc3cccc(F)c3)nc21 [Example 51, 6-(((3-fluorophenyl)thio)methyl)-1-methyl-5-phenyl-1H-pyrazolo[3,4-d]pyrimidin-4(5H)-one] | 92% | – | – | remaining activity at 20 µM (ALDH1A1): 25%
Cn1ncc2c(=O)n(-c3ccccc3)c(OCc3cccc(F)c3)nc21 [Example 60, 6-((3-fluorobenzyl)oxy)-1-methyl-5-phenyl-1H-pyrazolo[3,4-d]pyrimidin-4(5H)-one] | 91% | – | – | OVSAHO Cell Viability (30 μM) % CD133 + % ctrl (OVSAHO): 76% ctrl; OVSAHO Cell Viability (30 μM) Total Cell % ctrl (OVSAHO): 35% ctrl
CN(Cc1nc2c(cnn2C)c(=O)n1-c1ccccc1)c1cccc(F)c1 [Example 62, 6-(((3-fluorophenyl)(methyl)amino)methyl)-1-methyl-5-phenyl-1H-pyrazolo[3,4-d]pyrimidin-4(5H)-one] | 103% | – | – | OVSAHO Cell Viability (30 μM) % CD133 + % ctrl (OVSAHO): 96% ctrl; OVSAHO Cell Viability (30 μM) Total Cell % ctrl (OVSAHO): 65% ctrl
CC(Sc1nc2nn(CC3COC3)cc2c(=O)n1-c1ccccc1)c1ccccc1 (stereo not shown) [Example 64, 2-(oxetan-3-ylmethyl)-5-phenyl-6-((1-phenylethyl)thio)-2H-pyrazolo[3,4-d]pyrimidin-4(5H)-one] | 100% | – | – | –
C[C@@H](Sc1nc2c(cnn2C)c(=O)n1-c1ccccc1)c1ccccc1 [Example 65, (R)-1-methyl-5-phenyl-6-((1-phenylethyl)thio)-1H-pyrazolo[3,4-d]pyrimidin-4(5H)-one] | 100% | – | – | OVSAHO Cell Viability (30 μM) % CD133 + % ctrl (OVSAHO): 117% ctrl; OVSAHO Cell Viability (30 μM) Total Cell % ctrl (OVSAHO): 75% ctrl
CC(Oc1nc2c(cnn2C)c(=O)n1-c1ccccc1)c1ccccc1 (stereo not shown) [Example 66, 1-methyl-5-phenyl-6-(1-phenylethoxy)-1H-pyrazolo[3,4-d]pyrimidin-4(5H)-one] | 92% | – | – | OVSAHO Cell Viability (30 μM) Total Cell % ctrl (OVSAHO): 76% ctrl
CC(Sc1nc2c(cnn2C)c(=O)n1-c1ccccc1)c1cccc(O)c1 (stereo not shown) [Example 78, 6-((1-(3-hydroxyphenyl)ethyl)thio)-1-methyl-5-phenyl-1H-pyrazolo[3,4-d]pyrimidin-4(5H)-one] | 91% | – | – | remaining activity at 20 µM (ALDH1A1): 4%; remaining activity at 20 µM (ALDH1A2): 0%
